Laboratory results: patent publication US12637499B2, “Adrenomedullin analog, method for producing the same, and pharmaceutical use thereof” (priority 2020, dated 2026)
Read-outs that look alike come from different tables or passages of the source. Where a SMILES comes first, the peptide text is derived from it. Bridges are numbered along the chain shown (N, C = ends).

Key:
in vitro [1] = conditions: for change in amount with the lapse of reaction time in reaction mixture with serum: Experiment IV, up to 240 minutes; for remaining at 4 h: serum, pH 7.1
Description: After the lapse of a predetermined time, a 30-μl portion was taken out of the reaction solution, transferred into 170 μl of 0.1% aqueous solution of trifluoroacetic acid (TFA), and stored at −80° C. until analysis.
Quantitative analysis was performed for AM contained in the thus-obtained samples of a reaction mixture with serum or plasma by using specific fluoroimmunoassay (Tosoh Corporation) with two antibodies differing in their recognition sites. […] In the figure, the abscissa represents reaction time (min), and the ordinate represents concentration of AM (UM).
In the figure, the abscissa represents reaction time (min), and the ordinate represents concentration of AM or an AM analog (μM).
In the figure, the abscissa represents the type of AM or an AM analog, and the ordinate represents residual rates of AM or an AM analog (%).

[2] = 50 nmol/kg subcutaneous, Experiment VI
Description: (§1) Eight-week-old male Wistar rats were purchased from Charles River Laboratories Japan, Inc. The rats were grown with normal feeds in the absence of specific pathogens under cycles of a 12-hour light period and a 12-hour dark period. […] To determine plasma AM concentrations, 50 nmol/kg of AM or an AM analog was subcutaneously administered. A peripheral blood sample was collected from the tail vein into a test tube (containing 21 μg of aprotinin and 0.3 mg of EDTA-2Na) at predetermined times (0, 15, 30, 60, and 120 minutes after administration). The test tube was centrifuged at 1,700×g to afford plasma.

in vivo [3] = conditions: male, Wistar, rat, sc, 50 nmol/kg; for AUC: in vivo; for Cmax / half-life: plasma
Description: as §1

in vitro [4] = conditions: Experiment VIII; 10^−7 M, 37° C.; 4 hours after the beginning of reaction
Description: The stabilities of the AM analog peptides in serum were evaluated with the same procedure as in Experiment I except the following procedure. […] A reaction mixture containing 4 μL of phosphate buffer, 20 μL of human serum (Sigma-Aldrich Co. LLC, USA), and 14 μL of water was prepared. To the reaction mixture, 2 μL of AM or an AM analog peptide (2×10^−6 M, final concentration: 10^−7 M) was added, and reaction was initiated at 37° C. The reaction was terminated by addition of 160 μL of ELISA buffer to the reaction mixture 0, 1, or 4 hours after the beginning of reaction. […] In the figure, the abscissa represents reaction time (hr), and the ordinate represents concentration in serum of AM or an AM analog (%) represented as relative values to concentration of AM or an AM analog at the beginning of reaction (i.e., 0 hours after the beginning of reaction).

[5] = biological target: T1, AM type 1 receptor (AMI receptor) (Homo sapiens, UniProt O60895+Q16602); test: Intracellular cAMP production in HEK293 cells stably expressing AM type 1 receptor (Experiments V and IX); format: cell-based
T1 construct: expressed in transfected cells; medium contains hygromycin B and Geneticin
Text: The adrenomedullin activity exerted by AM, shown above with examples, will be exerted via increased concentration of intracellular cAMP in normal cases. Thus, the increased concentration of intracellular cAMP can be considered as an index of the adrenomedullin activity of the compound according to the aspect. In each aspect of the invention, the effect of increasing concentration of intracellular cAMP can be evaluated, for example, by adding a target compound to a cultured cell line (HEK293 cell line) caused to stably express an AM type 1 receptor (AMI receptor) and measuring the amount of intracellular cAMP produced.
The physiological effect of AM is known to be exerted via increase in the concentration of intracellular cAMP (see Kitamura K et al., Biochem Biophys Res Commun, 30 Apr. 1993, Volume 192, Issue 2, pp. 553-560). Accordingly, each AM analog was added to a cultured cell line (HEK293 cell line) caused to stably express an AM type 1 receptor (AMI receptor), and the amount of intracellular cAMP produced was measured. HEK293 cells were cultured in Dulbecco's modified Eagle's medium (with 10% fetal bovine serum, 100 U/ml penicillin G, […] streptomycin, 0.25 mg/ml amphotericin B, […] hygromycin B, and […] Geneticin) in a fibronectin-coated 24-well plate (Thermo Fisher Scientific) (under 37° C., humidified, 5% CO2 conditions). After culturing for 3 days, 90%-confluent cells with accumulation of intracellular cAMP stimulated were subjected to experiment. The medium was exchanged with Hanks's balanced salt solution containing 20 mM 4-(2-hydroxyethyl)-1-piperazineethanesulfonic acid and 0.1% bovine serum albumin, AM or an AM analog was added to the cells in the presence of 0.5 mM isobutylmethylxanthine (IBMX), and the cells were incubated at 37° C. for 15 minutes. The reaction was terminated by addition of cell lysis buffer. Then, the amount of intracellular cAMP produced in the HEK293 cells of each well was measured using an ELISA kit for cAMP measurement (GE Healthcare Japan Corp., #RPN2251). […] In the figure, the abscissa represents logarithms of concentration of AM or an AM analog added (M), and the ordinate represents amounts of intracellular cAMP produced in HEK293 cells stably expressing an AMI receptor (fmol/well).
In the figure, the abscissa represents logarithms of concentration of AM or an AM analog added (M), and the ordinate represents amounts of intracellular cAMP produced in HEK293 cells stably expressing an AMI receptor (fmol/ml).

in vivo [6] = test: in vivo
Description: Seven-week-old male Wistar rats were prepared, and grown with normal feeds. To determine plasma AM concentrations, 50 nmol/kg of AM or an AM analog was subcutaneously administered. A peripheral blood sample was collected from the tail vein into a Kantan tube® (containing heparin Na, Eiken Chemical Co., Ltd., Tochigi, Japan) at predetermined times (0, 15, 30, 60, and 120 minutes after administration). The tube was centrifuged at 2,000×g. Plasma was collected from the tube, and transferred into a test tube (containing 21 μg of aprotinin and 0.3 mg of EDTA-2Na) and stored. […] In the figure, the abscissa represents elapsed time after subcutaneous administration (hr), and the ordinate represents concentration in plasma of AM or an AM analog (pM). In addition, maximum concentrations in blood (Cmax) of AM or the AM analogs in rat plasma after subcutaneous administration were calculated.

T1 sequence (Q16602 23-461): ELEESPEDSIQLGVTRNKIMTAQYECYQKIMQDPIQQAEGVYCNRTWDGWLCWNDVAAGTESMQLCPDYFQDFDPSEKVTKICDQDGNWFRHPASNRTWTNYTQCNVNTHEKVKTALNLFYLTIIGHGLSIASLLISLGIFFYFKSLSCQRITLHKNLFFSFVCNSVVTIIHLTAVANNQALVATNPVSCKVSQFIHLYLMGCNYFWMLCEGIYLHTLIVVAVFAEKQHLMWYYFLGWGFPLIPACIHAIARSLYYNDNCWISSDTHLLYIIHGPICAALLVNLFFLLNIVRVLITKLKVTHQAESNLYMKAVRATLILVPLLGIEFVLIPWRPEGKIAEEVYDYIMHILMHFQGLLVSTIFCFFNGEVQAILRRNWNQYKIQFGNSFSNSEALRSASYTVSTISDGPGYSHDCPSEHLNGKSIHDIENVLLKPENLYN
T1 sequence (O60895 43-175): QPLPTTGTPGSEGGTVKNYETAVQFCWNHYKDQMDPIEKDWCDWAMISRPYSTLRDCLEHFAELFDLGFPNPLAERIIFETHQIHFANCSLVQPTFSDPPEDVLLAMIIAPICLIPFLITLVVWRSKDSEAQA

CC[C@H](C)[C@H](NC(=O)[C@H](CCC(N)=O)NC(=O)[C@H](Cc1c[nH]cn1)NC(=O)[C@H](C)NC(=O)[C@H](CC(C)C)NC(=O)[C@H](CCCCN)NC(=O)[C@H](CCC(N)=O)NC(=O)[C@@H](NC(=O)[C@@H](NC(=O)[C@@H]1CSSC[C@H](NC(=O)CNC(=O)[C@H](Cc2ccccc2)NC(=O)[C@@H](N)CO)C(=O)N[C@@H](CCCNC(=N)N)C(=O)N[C@@H](Cc2ccccc2)C(=O)NCC(=O)N[C@@H]([C@@H](C)O)C(=O)N1)[C@@H](C)O)C(C)C)C(=O)N[C@@H](Cc1ccc(O)cc1)C(=O)N[C@@H](CCC(N)=O)C(=O)N[C@@H](Cc1ccccc1)C(=O)N[C@H](C(=O)N[C@@H](CC(=O)O)C(=O)N[C@@H](CCCCN)C(=O)N[C@@H](CC(=O)O)C(=O)N[C@@H](CCCCN)C(=O)N[C@@H](CC(=O)O)C(=O)N[C@@H](CC(N)=O)C(=O)N[C@H](C(=O)N[C@@H](C)C(=O)N1CCC[C@H]1C(=O)N[C@H](CCCNC(=N)N)C(=O)N[C@@H](CO)C(=O)N[C@@H](CCCCN)C(=O)N[C@H](C(=O)N[C@@H](CO)C(=O)N1CCC[C@H]1C(=O)N[C@@H](CCC(N)=O)C(=O)NCC(=O)N[C@@H](Cc1ccc(O)cc1)C(N)=O)[C@@H](C)CC)C(C)C)[C@@H](C)O (relative stereo) [[D-Arg-44]hAM(13-52), SFGCRFGTCTVQKLAHQIYQFTDKDKDNVAP-*R-S-K-I-S-P-Q-G-Y-CONH2]
change in amount with the lapse of reaction time in reaction mixture with serum (in vitro [1]): almost no decrease or only slight decrease in amount
remaining at 4 h (in vitro [1]): 81.9%
detection in rat plasma after subcutaneous administration [2]: detected in rat plasma 15 minutes after administration
AUC (in vivo [3]): 0.0591 nM·h
Cmax (in vivo [3]): 0.111 nM
half-life (in vivo [3]): 1.27 h

CC[C@H](C)[C@H](NC(=O)[C@H](CCC(N)=O)NC(=O)[C@H](Cc1c[nH]cn1)NC(=O)[C@H](C)NC(=O)[C@H](CC(C)C)NC(=O)[C@H](CCCCN)NC(=O)[C@H](CCC(N)=O)NC(=O)[C@@H](NC(=O)[C@@H](NC(=O)[C@@H]1CSSC[C@H](NC(=O)CNC(=O)[C@H](Cc2ccccc2)NC(=O)[C@@H](N)CO)C(=O)N[C@@H](CCCNC(=N)N)C(=O)N[C@@H](Cc2ccccc2)C(=O)NCC(=O)N[C@@H]([C@@H](C)O)C(=O)N1)[C@@H](C)O)C(C)C)C(=O)N[C@@H](Cc1ccc(O)cc1)C(=O)N[C@@H](CCC(N)=O)C(=O)N[C@@H](Cc1ccccc1)C(=O)N[C@H](C(=O)N[C@@H](CC(=O)O)C(=O)N[C@@H](CCCCN)C(=O)N[C@@H](CC(=O)O)C(=O)N[C@@H](CCCCN)C(=O)N[C@@H](CC(=O)O)C(=O)N[C@@H](CC(N)=O)C(=O)N[C@H](C(=O)N[C@@H](C)C(=O)N1CCC[C@H]1C(=O)N[C@@H](CCCCN)C(=O)N[C@@H](CO)C(=O)N[C@@H](CCCCN)C(=O)N[C@H](C(=O)N[C@@H](CO)C(=O)N1CCC[C@H]1C(=O)N[C@@H](CCC(N)=O)C(=O)NCC(=O)N[C@@H](Cc1ccc(O)cc1)C(N)=O)[C@@H](C)CC)C(C)C)[C@@H](C)O [[Lys-44]hAM(13-52), SFGCRFGTCTVQKLAHQIYQFTDKDKDNVAPKSKISPQGY-CONH2] (H-SFGCRFGTCTVQKLAHQIYQFTDKDKDNVAPKSKISPQGY-NH2; disulfide 4-9)
change in amount with the lapse of reaction time in reaction mixture with serum (in vitro [1]): almost no decrease or only slight decrease in amount
remaining at 4 h (in vitro [1]): 51.8%
detection in rat plasma after subcutaneous administration [2]: detected in rat plasma 15 minutes after administration
AUC (in vivo [3]): 0.227 nM·h
Cmax (in vivo [3]): 0.396 nM
half-life (in vivo [3]): 1.47 h

CC[C@H](C)[C@H](NC(=O)[C@H](CCC(N)=O)NC(=O)[C@H](Cc1c[nH]cn1)NC(=O)[C@H](C)NC(=O)[C@H](CC(C)C)NC(=O)[C@H](CCCCN)NC(=O)[C@H](CCC(N)=O)NC(=O)[C@@H](NC(=O)[C@@H](NC(=O)[C@@H]1CSSC[C@H](NC(=O)CNC(=O)[C@H](Cc2ccccc2)NC(=O)[C@@H](N)CO)C(=O)N[C@@H](CCCNC(=N)N)C(=O)N[C@@H](Cc2ccccc2)C(=O)NCC(=O)N[C@@H]([C@@H](C)O)C(=O)N1)[C@@H](C)O)C(C)C)C(=O)N[C@@H](Cc1ccc(O)cc1)C(=O)N[C@@H](CCC(N)=O)C(=O)N[C@@H](Cc1ccccc1)C(=O)N[C@H](C(=O)N[C@@H](CC(=O)O)C(=O)N[C@@H](CCCCN)C(=O)N[C@@H](CC(=O)O)C(=O)N[C@@H](CCCCN)C(=O)N[C@@H](CC(=O)O)C(=O)N[C@@H](CC(N)=O)C(=O)N[C@H](C(=O)N[C@@H](C)C(=O)N1CCC[C@H]1C(=O)N[C@@H](CO)C(=O)N[C@@H](CCCCN)C(=O)N[C@H](C(=O)N[C@@H](CO)C(=O)N1CCC[C@H]1C(=O)N[C@@H](CCC(N)=O)C(=O)NCC(=O)N[C@@H](Cc1ccc(O)cc1)C(N)=O)[C@@H](C)CC)C(C)C)[C@@H](C)O [[des-Arg-44]hAM(13-52), SFGCRFGTCTVQKLAHQIYQFTDKDKDNVAPSKISPQGY-CONH2] (H-SFGCRFGTCTVQKLAHQIYQFTDKDKDNVAPSKISPQGY-NH2; disulfide 4-9)
stability in reaction mixture with human serum (in vitro [4]): stable
EC50 [5]: 1.95 nM
intracellular cAMP concentration-increasing activity ([5]; Experiment IX, addition at 10^−9 M or 10^−8 M, HEK293 cells): approximately equivalent to that of hAM(1-52) or hAM(13-52)
detection in rat plasma after subcutaneous administration (in vivo [6]; 50 nmol/kg subcutaneous, Experiment X): detected in rat plasma 15 minutes after administration
Cmax (in vivo [6]; male, Wistar, rat, in vivo, sc, 50 nmol/kg): 0.679 nM
